{"source": "patent US20240262842A1", "about": "“SMALL MOLECULE INHIBITORS OF KRAS G12C MUTANT” (Merck Sharp & Dohme LLC, priority 2021, published 2024)", "key": {"[1]": {"target": "T1, interaction between GMPPNP-bound recombinant K-Ras4B G12C mutant protein and cRAF RAS-binding domain (cRAF-RBD) (Homo sapiens, UniProt P01116, G12C)", "T1 construct": "His-tag (N)", "T1 sequence (P01116 with tags, fused parts or gaps isoform P01116-2 G12C)": "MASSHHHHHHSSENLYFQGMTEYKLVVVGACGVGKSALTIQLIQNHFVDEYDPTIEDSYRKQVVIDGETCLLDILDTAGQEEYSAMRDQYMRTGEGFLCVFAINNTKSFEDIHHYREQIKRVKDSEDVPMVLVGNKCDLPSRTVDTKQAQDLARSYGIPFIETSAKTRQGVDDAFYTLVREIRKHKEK", "test": "Inhibitory activity on interaction between KRAS G12C and cRAF (Alpha technology)", "settings": "Table 2-1", "method_in_brief": "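Alpha signal measured 1.5 h after adding cRAF-RBD (aa 50-132) and detection reagents to GMPPNP-bound KRAS G12C (aa 1-169) pretreated 1 h at 25° C with compound (pH 7.5 buffer). 0% inhibition = DMSO, 100% = GDP-loaded KRAS; IC50 by curve fit.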"}, "MIA PaCa-2 cells": {"test_system": "MIA PaCa-2 cells", "test": "Growth inhibition activity on KRAS-G12C mutant cell line (CellTiter-Glo 3D)", "format": "cell-based, human", "settings": "Homo sapiens, MIA PaCa-2, 72 h, MIA PaCa-2, 3-day culture with compound; Table 3-1", "method_in_brief": "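IC50 (nM) derived from inhibition of luminescence (CellTiter-Glo 3D) relative to compound-free wells. Cells were seeded in U-bottom plates, grown 1 day, then exposed to compound for 3 days at 37 °C with 0.2% final DMSO.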"}, "[2]": {"settings": "GMPPNP-bound KRAS G12C incubated with compound 25° C. 1 hour, read-out: IC50"}, "[3]": {"settings": "IC50, GMPPNP-bound KRAS G12C incubated with compound 25° C. 1 hour"}}, "note": "Like-named read-outs stand apart in the source and are kept apart here."}
{"smiles": "Cn1cnc2c3c(c(C(F)(F)F)cc21)-c1cccn2c(C(=O)c4cc(F)c(NC(=O)/C=C/CNC5(C)COC5)c(F)c4)cc(c12)CCO3", "note": "(single isomer, unassigned) [Example 75, (E)-N-(2,6-difluoro-4-(9-methyl-7-(trifluoro-methyl)-13,14-dihydro-9H-imidazo[4″,5″:5′,6′]-benzo[1′,2′:2,3]oxocino-[4,5,6-hi]indolizine-2-carbonyl)phenyl)-4-((3-methyloxetan-3-yl)-amino)but-2-enamide]", "values": [{"measurement": "IC50", "setting": "[1]; [2]", "value": 15.9, "unit": "nM"}, {"measurement": "IC50", "setting": "MIA PaCa-2 cells", "value": 9.48, "unit": "nM"}]}
{"smiles": "CN1CCc2cc(C(=O)c3cc(F)c(NC(=O)/C=C/CNC4(C)COC4)c(F)c3)n3cccc(c23)-c2c(C(F)(F)F)cc3c(ncn3C)c21", "note": "(single isomer, unassigned) [Example 83]", "values": [{"measurement": "IC50", "setting": "[1]; [2]", "value": 33.9, "unit": "nM"}, {"measurement": "IC50", "setting": "MIA PaCa-2 cells", "value": 15.4, "unit": "nM"}]}
{"smiles": "Cc1nc2c3c(c(C(F)(F)F)cc2n1C)-c1cccc2c(C(=O)c4cc(F)c(NC(=O)/C=C/CN[C@H]5CCOC5)c(F)c4)cn(c12)CCN3C", "note": "(single isomer, unassigned) [Example 87]", "values": [{"measurement": "IC50", "setting": "[1]; [3]", "value": 18.2, "unit": "nM"}, {"measurement": "IC50", "setting": "MIA PaCa-2 cells", "value": 3.27, "unit": "nM"}]}
{"smiles": "CN1CCc2cc(C(=O)c3cc(F)c(NC(=O)/C=C/CN[C@@H]4CCOC4)c(F)c3)n3cccc(c23)-c2c(C(F)(F)F)cc3c(ncn3C)c21", "note": "(single isomer, unassigned) [Example 89]", "values": [{"measurement": "IC50", "setting": "[1]; [2]", "value": 16, "unit": "nM"}, {"measurement": "IC50", "setting": "MIA PaCa-2 cells", "value": 4.37, "unit": "nM"}]}
{"smiles": "Cc1cc2c(nc(C)n2C)c2c1-c1cccc3c(C(=O)c4cc(F)c(NC(=O)/C=C/CN[C@H]5CCOC5)c(F)c4)cn(c13)CCN2C", "note": "(single isomer, unassigned) [Example 90]", "values": [{"measurement": "IC50", "setting": "[1]; [3]", "value": 17.2, "unit": "nM"}, {"measurement": "IC50", "setting": "MIA PaCa-2 cells", "value": 21.6, "unit": "nM"}]}
{"smiles": "COCc1nc2c3c(c(C(F)(F)F)cc2n1C)-c1cccn2c(C(=O)c4cc(F)c(NC(=O)/C=C/CNC5(C)COC5)c(F)c4)cc(c12)CCN3C", "note": "(single isomer, unassigned) [Example 92, (E)-N-(2,6-difluoro-4-(10-(methoxymethyl)-9,12-dimethyl-7-(trifluoromethyl)-9,12,13,14-tetrahydroimidazo[4″,5″:5′,6′]benzo[1′,2′:2,3]azocino[4,5,6-hi]indolizine-2-carbonyl)phenyl)-4-((3-methyloxetan-3-yl)amino)but-2-enamide]", "values": [{"measurement": "IC50", "setting": "[1]; [2]", "value": 19.9, "unit": "nM"}, {"measurement": "IC50", "setting": "MIA PaCa-2 cells", "value": 12.1, "unit": "nM"}]}
{"smiles": "Cc1nc2c3c(c(C(F)(F)F)cc2n1C)-c1cccc2c(C(=O)c4cc(F)c(NC(=O)/C=C/CN[C@@H]5CCOC5)c(F)c4)cn(c12)CCN3C", "note": "(single isomer, unassigned) [Example 95]", "values": [{"measurement": "IC50", "setting": "[1]; [3]", "value": 31.2, "unit": "nM"}, {"measurement": "IC50", "setting": "MIA PaCa-2 cells", "value": 11.4, "unit": "nM"}]}
{"smiles": "COCc1nc2c3c(c(C(F)(F)F)cc2n1C)-c1cccc2c(C(=O)c4cc(F)c(NC(=O)/C=C/CNC5(C)COC5)c(F)c4)cn(c12)CCN3C", "note": "(single isomer, unassigned) [Example 97, (E)-N-(2,6-difluoro-4-(9-(methoxymethyl)-8,11-dimethyl-6-(trifluorometh-yl)-8,11,12,13-tetrahydro-imidazo[4″,5″:5′,6′]benzo-[1′,2′:5,6][1,4]diazocino-[7,8,1-hi]indole-2-carbon-yl)phenyl)-4-((3-methyl-oxetan-3-yl)amino)but-2-enamide]", "values": [{"measurement": "IC50", "setting": "[1]; [3]", "value": 30.4, "unit": "nM"}, {"measurement": "IC50", "setting": "MIA PaCa-2 cells", "value": 7.91, "unit": "nM"}]}
{"smiles": "COCc1nc2c3c(c(C(F)(F)F)cc2n1C)-c1cccn2c(C(=O)c4cc(F)c(NC(=O)/C=C/CN[C@H]5CCOC5)c(F)c4)cc(c12)CCN3C", "note": "(single isomer, unassigned) [Example 98]", "values": [{"measurement": "IC50", "setting": "[1]; [2]", "value": 11.1, "unit": "nM"}, {"measurement": "IC50", "setting": "MIA PaCa-2 cells", "value": 3.94, "unit": "nM"}]}
{"smiles": "COCc1nc2c3c(c(C(F)(F)F)cc2n1C)-c1cccn2c(C(=O)c4cc(F)c(NC(=O)/C=C/CNC5(C)COC5)c(F)c4)cc(c12)CCO3", "note": "(single isomer, unassigned) [Example 99, (E)-N-(2,6-difluoro-4-(10-(methoxymethyl)-9-meth-yl-7-(trifluoromethyl)-13,14-dihydro-9H-imidazo[4″,5″:5′,6′]benzo-[1′,2′:2,3]oxocino[4,5,6-hi]indolizine-2-carbonyl)-phenyl)-4-((3-methyl-oxetan-3-yl)amino)-but-2-enamide]", "values": [{"measurement": "IC50", "setting": "[1]; [2]", "value": 12.2, "unit": "nM"}, {"measurement": "IC50", "setting": "MIA PaCa-2 cells", "value": 9.79, "unit": "nM"}]}
